Source: ChEMBL document CHEMBL5260825, “Chemical Constituents of Bryophytes: Structures and Biological Activity” (J Nat Prod, 2018)
In brackets after ≈: the same amount, converted by molar mass. Several values for one entry are separate records, joined by “and”; a condition that tells them apart may be missing. Identical values can stand only once. Each block holds one compound with its values, some of them ahead of it.

Columns and labels:
Staphylococcus aureus = assay: Antibacterial activity against Staphylococcus aureus assessed as inhibition of bacterial growth by agar diffusion method; format: functional
[1] = system: Trichostrongylus colubriformis; assay: Anthelmintic activity against third stage larvae of Trichostrongylus colubriformis by microscope based analysis; format: functional, organism-based
RAW264.7 [2] = assay: Inhibition of LPS-induced NO production in mouse RAW264.7 cells; format: functional, cell-based
[3] = system: Peritoneal macrophage cell; assay: Inhibition of superoxide anion radical release in guinea pig peritoneal macrophages; format: functional, cell-based; conditions: Cavia porcellus
HL-60 = assay: Antiproliferative activity against human HL-60 cells assessed as cell growth inhibition; format: functional, cell-based
P388 = assay: Antiproliferative activity against mouse P388 cells assessed as cell growth inhibition; format: functional, cell-based
RPMI-7951 = assay: Antiproliferative activity against human RPMI-7951 cells assessed as cell growth inhibition; format: functional; conditions: read-out: ED50 (the source's name)
U-251 = assay: Antiproliferative activity against human U-251MG cells assessed as cell growth inhibition; format: functional; conditions: read-out: ED50 (the source's name)
Candida albicans = assay: Antifungal activity against Candida albicans assessed as inhibition of fungal growth by MTT assay; format: functional
KB = assay: Antiproliferative activity against human KB cells assessed as cell growth inhibition; format: functional, cell-based
Cyclooxygenase = Cyclooxygenase (Homo sapiens, UniProt P35354+P23219); assay: Inhibition of COX (unknown origin); format: protein assay
[4] = target: T1, Polyunsaturated fatty acid 5-lipoxygenase (Homo sapiens) (UniProt P09917); assay: Inhibition of ALOX5 (unknown origin) at 0.000001 M relative to control; conditions: dose 1 µM
T1 sequence (whole entry): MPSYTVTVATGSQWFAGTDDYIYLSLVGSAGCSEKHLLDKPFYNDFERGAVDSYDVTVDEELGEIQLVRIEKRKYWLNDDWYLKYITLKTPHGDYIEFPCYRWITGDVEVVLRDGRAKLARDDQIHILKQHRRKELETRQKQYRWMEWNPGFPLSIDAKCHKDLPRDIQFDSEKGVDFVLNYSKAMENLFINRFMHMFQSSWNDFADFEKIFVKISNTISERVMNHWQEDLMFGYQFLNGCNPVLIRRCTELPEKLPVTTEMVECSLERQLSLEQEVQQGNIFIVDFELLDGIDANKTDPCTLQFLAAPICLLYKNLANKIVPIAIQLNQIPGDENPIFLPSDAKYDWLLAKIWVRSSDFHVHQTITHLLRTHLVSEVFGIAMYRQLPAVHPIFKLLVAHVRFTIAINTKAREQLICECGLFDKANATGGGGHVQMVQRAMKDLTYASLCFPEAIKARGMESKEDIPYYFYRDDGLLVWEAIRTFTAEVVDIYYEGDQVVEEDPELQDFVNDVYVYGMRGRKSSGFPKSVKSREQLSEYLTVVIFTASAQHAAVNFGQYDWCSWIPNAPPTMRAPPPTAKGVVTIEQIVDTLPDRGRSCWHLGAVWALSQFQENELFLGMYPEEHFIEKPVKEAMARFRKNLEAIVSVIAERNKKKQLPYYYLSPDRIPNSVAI

DNA polymerase beta = DNA polymerase beta (Homo sapiens, UniProt P06746); assay: Inhibition of DNA polymerase beta (unknown origin)
RAW264.7 [5] = assay: Inhibition of LPS-induced NO production in mouse RAW264.7 cells incubated for 24 hrs by Griess reagent based assay; format: functional, cell-based; conditions: RAW264.7, 24 h

- IC50 (HL-60): 1.28 µM
SMILES: C=C1C(=O)[C@@H]2C3=C(CC[C@@H]4C(C)(C)CCC[C@@]34C)C[C@H]1[C@@H]2O

- IC50 (HL-60): 0.28 µM
SMILES: C=C1C(=O)[C@H]2C[C@@H]1CC1=C2[C@@]2(C)[C@H](CC1)C(C)(C)CC[C@@H]2O

- IC50 (RAW264.7 [2]): 4.5 µM
SMILES: CC1(C)[C@H]2CC[C@]3(C)Oc4cc(O)cc(CCc5ccccc5)c4[C@H]1[C@@H]23

- IC50 (RAW264.7 [2]): 4.5 µM
SMILES: C[C@H]1C(O)(O)C[C@@]2(C)[C@@H](CC[C@@H]3O[C@@]32C)[C@]1(C)CCc1ccoc1

- IC50 (RAW264.7 [2]): 4.5 µM
SMILES: C[C@H]1CC[C@@]2(C)[C@@H](CC[C@@H]3O[C@@]32C)[C@]1(C)CCc1ccoc1

- IC50 (HL-60): 2.7 µM
SMILES: C=C[C@@]1(O)CC(=O)[C@@]2(C(=O)OC)[C@H](C)CC[C@@]2(C)[C@@H]1C

- GI50 (P388): 1.9 µg/mL and 5.9 µM
- IC50 (P388): 0.8 µg/mL (≈ 2.51 µM)
SMILES: C[C@H]1C(=O)C2=C[C@H]1CCC(=O)[C@]1(C)CCCC(C)(C)[C@H]1C[C@H]2O

- IC50 (HL-60): 0.59 µM
SMILES: C=C1C(=O)[C@@]23CC[C@@H]4C(C)(C)CCC[C@@]4(C)C2=CC(=O)[C@@H]1C3

- IC50 (RAW264.7 [5]): 4.1 µM
SMILES: Cc1ccc(O)c([C@@]2(C)CCCC2(C)C)c1

- IC50 (RAW264.7 [2]): 6.3 µM
SMILES: C=C1C[C@@]23CC(OC(=O)/C=C/c4ccc(O)c(O)c4)[C@@H]1[C@@]2(C)CCCC3(C)C (stereo not given in full)

- IC50 (RAW264.7 [5]): 4.1 µM
SMILES: Cc1cc([C@@]2(C)CCCC2(C)C)ccc1O

- GI50 (P388): 0.48 µg/mL and 1.6 µM
- IC50 (HL-60): 0.49 µM
SMILES: C=C1C(=O)[C@@]23CC[C@@H]4C(C)(C)CCC[C@@]4(C)[C@@H]2[C@@H](O)C[C@@H]1C3

Further lines, the compound ahead of its results:

SMILES: NC[C@H]1O[C@H](O[C@H]2[C@H](O)[C@@H](O[C@H]3O[C@H](CO)[C@@H](O)[C@H](N)[C@H]3O)[C@H](N)C[C@@H]2N)[C@H](O)[C@@H](O)[C@@H]1O [KANAMYCIN]
- diameter of the inhibition zone (DIZ) (Staphylococcus aureus): 23 mm

SMILES: COc1cc(/C=C/c2ccccc2)ccc1O
- IC50 [1]: 60 µg/mL (≈ 265 µM)

SMILES: CC(C)=CCC[C@@]1(C)C=Cc2c(CCc3ccccc3)cc(O)cc2O1
- IC50 (RAW264.7 [2]): 4.5 µM

SMILES: C[C@]12COc3cc(CCc4ccccc4)c(C(=O)O)c(O)c3[C@H]1C2
- IC50 [3]: 6 µg/mL (≈ 18.5 µM)

SMILES: C=C1C(=O)O[C@H]2/C=C(\C)CC/C=C(\C)CC[C@H]12
- IC50 (P388): 0.7 µg/mL (≈ 3.01 µM)

SMILES: O=C(/C=C\c1ccccc1)c1cc(O)cc2c1CC(c1ccccc1)O2 (stereo not given) [PALLIDISETIN B]
- EC50 (RPMI-7951): 1 µg/mL (≈ 2.92 µM)
- EC50 (U-251): 2 µg/mL (≈ 5.84 µM)

SMILES: C=C1C(=O)[C@@H]2C3=C(CC[C@@H]4C(C)(C)CC[C@H](O)[C@@]34C)C[C@H]1[C@@H]2O
- IC50 (HL-60): 0.78 µM

SMILES: COc1cc(OC)c2c3c1-c1c(O)cccc1[C@@H]1Oc4ccccc4[C@@H](C[C@@H]2O)[C@@H]31
- EC50 (U-251): 0.8 µg/mL (≈ 1.99 µM)

SMILES: Oc1ccc2cc1Oc1ccc(cc1)CCc1c(cc(O)c(O)c1O)-c1ccc(cc1O)CC2
- MID (Candida albicans): 4 µg/mL

SMILES: COC1Cc2cccc(c2)Oc2c(O)cccc2CCc2ccc(cc2)Oc2cc1cc(O)c2O (stereo not given) [MARCHANTIN E]
- MID (Candida albicans): 2.5 µg/mL
- IC50 (KB): 7.6 µM
- IC50 (Cyclooxygenase): 58 µM
- inhibition [4]: 4%

SMILES: Oc1cccc(CCc2ccc(Oc3cc(CCc4cccc(O)c4)cc(O)c3O)cc2)c1 [PERROTETTIN F]
- IC50 (DNA polymerase beta): 14.4 µM

SMILES: C=C1C(=O)O[C@H]2C3=C(C)CCC[C@@]3(C)CC[C@H]12
- IC50 (P388): 1.1 µg/mL (≈ 4.73 µM)

SMILES: CC(C)=CCC/C(C)=C/Cc1c(O)cc(O)cc1CCc1ccccc1
- IC50 (RAW264.7 [2]): 4.5 µM

SMILES: CC1=CCc2c(O)cc(CCc3ccccc3)cc2OC1
- IC50 (RAW264.7 [2]): 4.5 µM
- inhibition [4]: 4%

SMILES: Cc1ccc([C@@]2(C)CCCC2(C)C)c(O)c1O
- IC50 (RAW264.7 [5]): 4.1 µM

SMILES: C=C1CC[C@H]2[C@@H]([C@H]3C(C)=COC(=O)[C@@H]13)C2(C)C
- IC50 [3]: 12.5 µg/mL (≈ 53.8 µM)

SMILES: CC1(C)CCC[C@]2(C)[C@@H](C=O)C(C=O)=CC[C@@H]12 [POLYGODIAL]
- IC50 [1]: 70 µg/mL (≈ 299 µM)

SMILES: CC1(C)[C@H](OC(=O)/C=C/c2ccc(O)c(O)c2)CC[C@]2(C)[C@H]3C4C[C@@]12C[C@]43C
- IC50 [3]: 7.5 µg/mL (≈ 19.6 µM)

SMILES: Oc1cc(CCc2ccccc2O)c2ccoc2c1
- IC50 (RAW264.7 [2]): 4.5 µM

SMILES: O=C(/C=C/c1ccccc1)c1cc(O)cc2c1CC(c1ccccc1)O2 (stereo not given) [PALLIDISETIN A]
- EC50 (RPMI-7951): 1 µg/mL (≈ 2.92 µM)
- EC50 (U-251): 2 µg/mL (≈ 5.84 µM)
